Reference: patent US4281121A, “1,3,4-Thiadiazole-2-carboxylic acid derivatives, process for making the same and fungicidal and nematocidal compositions containing same” (Schering Aktiengesellschaft, priority 1978, dated 1981)

System: Venturia inaequalis
Experiment: Prophylactic leaf treatment of apples in open field test against Venturia inaequalis
Assay type: in vivo
Conditions: concentration of active agent 0.005 (in gram); 3 weeks

| SMILES | % activity [%] |
| --- | --- |
| CC(C)NC(=O)c1nnc([S+](C)[O-])s1 (centres unmarked) [5-methylsulfinyl-1,3,4-thiadiazole-2-carboxylic acid-isopropylamide] | 71 |
| CCCNC(=O)c1nnc([S+](C)[O-])s1 (centres unmarked) [5-methylsulfinyl-1,3,4-thiadiazole-2-carboxylic acid-propylamide] | 62 |
| CCNC(=O)c1nnc(S(C)(=O)=O)s1 [5-methylsulfonyl-1,3,4-thiadiazole-2-carboxylic acid-ethylamide] | 81 |

Same assay, conditions: concentration of active agent 0.025 (in gram); 3 weeks

| SMILES | % activity [%] |
| --- | --- |
| CC(C)NC(=O)c1nnc([S+](C)[O-])s1 (centres unmarked) [5-methylsulfinyl-1,3,4-thiadiazole-2-carboxylic acid-isopropylamide] | 90 |
| CCCNC(=O)c1nnc([S+](C)[O-])s1 (centres unmarked) [5-methylsulfinyl-1,3,4-thiadiazole-2-carboxylic acid-propylamide] | 99.7 |
| CCNC(=O)c1nnc(S(C)(=O)=O)s1 [5-methylsulfonyl-1,3,4-thiadiazole-2-carboxylic acid-ethylamide] | 97 |

System: Piricularia oryzae
Experiment: not given
Assay type: in vivo
Conditions: concentration of active agent 0.1 (percentages); 5 days

| SMILES | % activity [%] |
| --- | --- |
| CC(C)NC(=O)c1nnc([S+](C)[O-])s1 (centres unmarked) [5-methylsulfinyl-1,3,4-thiadiazole-2-carboxylic acid-isopropylamide] | 90 |
| CCNC(=O)c1nnc(S(C)(=O)=O)s1 [5-methylsulfonyl-1,3,4-thiadiazole-2-carboxylic acid-ethylamide] | 90 |

System: Plasmopara viticola
Experiment: Prophylactic leaf treatment of grapevines in the hothouse against Plasmopara viticola
Assay type: in vivo
Conditions: concentration of active agent 0.005 (unit not given)
Experimental: Effects of prophylactic leaf treatment of grapevines in the hothouse against Plasmopara viticola
Young grapevine plants having from 5 to 8 leaves were sprayed dripping wet with the concentrations of active agents stated in the table below. After drying of the spray deposit the leaves were sprayed with an aqueous suspension of sporangia of the fungus (about 20,000 per ml); the spraying was applied to the bottom side of the leaves. The plants were then immediately incubated in a hothouse at a temperature of 22° to 24° C. and at maximum water saturation in the atmosphere. Beginning with the second day the humidity of the air was reduced for 3 to 4 days to normal level (30 to 70% saturation) and was then maintained for another day on the level of full saturation. Subsequently, the percentage portion of the fungus infested surface of each leaf was noted and the average per treatment was calculated in order to determine the fungicidal activity. This was done on the basis of the following formula: [formula]
The active compounds were applied in the form of a 20% concentration spray powder.

| SMILES | % activity [%] |
| --- | --- |
| CCCNC(=O)c1nnc([S+](C)[O-])s1 (centres unmarked) [5-methylsulfinyl-1,3,4-thiadiazole-2-carboxylic acid-propylamide] | 75 |
| CCNC(=O)c1nnc(S(C)(=O)=O)s1 [5-methylsulfonyl-1,3,4-thiadiazole-2-carboxylic acid-ethylamide] | 81 |

Same assay, conditions: concentration of active agent 0.025 (unit not given)

| SMILES | % activity [%] |
| --- | --- |
| CC(C)NC(=O)c1nnc([S+](C)[O-])s1 (centres unmarked) [5-methylsulfinyl-1,3,4-thiadiazole-2-carboxylic acid-isopropylamide] | 90 |
| CCCNC(=O)c1nnc([S+](C)[O-])s1 (centres unmarked) [5-methylsulfinyl-1,3,4-thiadiazole-2-carboxylic acid-propylamide] | 99 |
| CCNC(=O)c1nnc(S(C)(=O)=O)s1 [5-methylsulfonyl-1,3,4-thiadiazole-2-carboxylic acid-ethylamide] | 97 |

System: Tilletia caries
Experiment: Treatment of oat seeds infested with Tilletia caries (spore germination)
Assay type: in vivo
Conditions: 10 g active agent per 100 kg

| SMILES | % activity [%] |
| --- | --- |
| CCCNC(=O)c1nnc([S+](C)[O-])s1 (centres unmarked) [5-methylsulfinyl-1,3,4-thiadiazole-2-carboxylic acid-propylamide] | 99 |
| CCNC(=O)c1nnc(S(C)(=O)=O)s1 [5-methylsulfonyl-1,3,4-thiadiazole-2-carboxylic acid-ethylamide] | 99.2 |

Same assay, conditions: 20 g active agent per 100 kg

| SMILES | % activity [%] |
| --- | --- |
| CC(C)NC(=O)c1nnc([S+](C)[O-])s1 (centres unmarked) [5-methylsulfinyl-1,3,4-thiadiazole-2-carboxylic acid-isopropylamide] | 100 |
| CCCNC(=O)c1nnc([S+](C)[O-])s1 (centres unmarked) [5-methylsulfinyl-1,3,4-thiadiazole-2-carboxylic acid-propylamide] | 100 |
| CCNC(=O)c1nnc(S(C)(=O)=O)s1 [5-methylsulfonyl-1,3,4-thiadiazole-2-carboxylic acid-ethylamide] | 99.2 |

Same assay, conditions: 50 g active agent per 100 kg

| SMILES | % activity [%] |
| --- | --- |
| CC(C)NC(=O)c1nnc([S+](C)[O-])s1 (centres unmarked) [5-methylsulfinyl-1,3,4-thiadiazole-2-carboxylic acid-isopropylamide] | 100 |
| CCCNC(=O)c1nnc([S+](C)[O-])s1 (centres unmarked) [5-methylsulfinyl-1,3,4-thiadiazole-2-carboxylic acid-propylamide] | 100 |
| CCNC(=O)c1nnc(S(C)(=O)=O)s1 [5-methylsulfonyl-1,3,4-thiadiazole-2-carboxylic acid-ethylamide] | 98 |

System: Helminthosporium gram
Experiment: not given
Conditions: 10 g active agent per 100 kg; about 5 weeks

| SMILES | % activity [%] |
| --- | --- |
| CCCNC(=O)c1nnc([S+](C)[O-])s1 (centres unmarked) [5-methylsulfinyl-1,3,4-thiadiazole-2-carboxylic acid-propylamide] | 75 |

Same assay, conditions: 20 g active agent per 100 kg; about 5 weeks

| SMILES | % activity [%] |
| --- | --- |
| CC(C)NC(=O)c1nnc([S+](C)[O-])s1 (centres unmarked) [5-methylsulfinyl-1,3,4-thiadiazole-2-carboxylic acid-isopropylamide] | 96 |
| CCCNC(=O)c1nnc([S+](C)[O-])s1 (centres unmarked) [5-methylsulfinyl-1,3,4-thiadiazole-2-carboxylic acid-propylamide] | 98 |

Same assay, conditions: 50 g active agent per 100 kg; about 5 weeks

| SMILES | % activity [%] |
| --- | --- |
| CC(C)NC(=O)c1nnc([S+](C)[O-])s1 (centres unmarked) [5-methylsulfinyl-1,3,4-thiadiazole-2-carboxylic acid-isopropylamide] | 100 |
| CCCNC(=O)c1nnc([S+](C)[O-])s1 (centres unmarked) [5-methylsulfinyl-1,3,4-thiadiazole-2-carboxylic acid-propylamide] | 100 |
| CCNC(=O)c1nnc(S(C)(=O)=O)s1 [5-methylsulfonyl-1,3,4-thiadiazole-2-carboxylic acid-ethylamide] | 93 |

System: Pythium ultimum
Experiment: Threshold concentration test for use of the compounds against Pythium ultimum (infested soil, garden peas)
Assay type: in vivo
Parameters: key to root evaluation (1-4): 4: white roots without fungous necrosis; 3: white roots, minor fungous necrosis; 2: brown roots, already more pronounced fungous necrosis; 1: heavy fungous necrosis, roots rotted
Conditions: 20 mg/l soil; 3 weeks
How it was run: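 Garden pea seeds, 20 per dish, went straight into Pythium ultimum-infested soil into which 20% pulverulent formulations had been uniformly blended. Sound plants counted and roots rated 1–4 after three weeks of hothouse growth at 20–24 °C.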

| SMILES | root evaluation (1-4) |
| --- | --- |
| CC(C)NC(=O)c1nnc([S+](C)[O-])s1 (centres unmarked) [5-methylsulfinyl-1,3,4-thiadiazole-2-carboxylic acid-isopropylamide] | 4 |
| CCCNC(=O)c1nnc([S+](C)[O-])s1 (centres unmarked) [5-methylsulfinyl-1,3,4-thiadiazole-2-carboxylic acid-propylamide] | 4 |
| CCNC(=O)c1nnc(S(C)(=O)=O)s1 [5-methylsulfonyl-1,3,4-thiadiazole-2-carboxylic acid-ethylamide] | 4 |

Same assay, conditions: 20 mg/l soil; 20 grains per dish; 3 weeks at 20-24° C.

| SMILES | number of sound peas |
| --- | --- |
| CC(C)NC(=O)c1nnc([S+](C)[O-])s1 (centres unmarked) [5-methylsulfinyl-1,3,4-thiadiazole-2-carboxylic acid-isopropylamide] | 19 |
| CCCNC(=O)c1nnc([S+](C)[O-])s1 (centres unmarked) [5-methylsulfinyl-1,3,4-thiadiazole-2-carboxylic acid-propylamide] | 14 |
| CCNC(=O)c1nnc(S(C)(=O)=O)s1 [5-methylsulfonyl-1,3,4-thiadiazole-2-carboxylic acid-ethylamide] | 15 |

Same assay, conditions: 40 mg/l soil; 3 weeks

| SMILES | root evaluation (1-4) |
| --- | --- |
| CC(C)NC(=O)c1nnc([S+](C)[O-])s1 (centres unmarked) [5-methylsulfinyl-1,3,4-thiadiazole-2-carboxylic acid-isopropylamide] | 4 |
| CCCNC(=O)c1nnc([S+](C)[O-])s1 (centres unmarked) [5-methylsulfinyl-1,3,4-thiadiazole-2-carboxylic acid-propylamide] | 4 |
| CCNC(=O)c1nnc(S(C)(=O)=O)s1 [5-methylsulfonyl-1,3,4-thiadiazole-2-carboxylic acid-ethylamide] | 4 |

Same assay, conditions: 40 mg/l soil; 20 grains per dish; 3 weeks at 20-24° C.

| SMILES | number of sound peas |
| --- | --- |
| CC(C)NC(=O)c1nnc([S+](C)[O-])s1 (centres unmarked) [5-methylsulfinyl-1,3,4-thiadiazole-2-carboxylic acid-isopropylamide] | 19 |
| CCCNC(=O)c1nnc([S+](C)[O-])s1 (centres unmarked) [5-methylsulfinyl-1,3,4-thiadiazole-2-carboxylic acid-propylamide] | 15 |
| CCNC(=O)c1nnc(S(C)(=O)=O)s1 [5-methylsulfonyl-1,3,4-thiadiazole-2-carboxylic acid-ethylamide] | 15 |

Same assay, conditions: 80 mg/l soil; 3 weeks

| SMILES | root evaluation (1-4) |
| --- | --- |
| CC(C)NC(=O)c1nnc([S+](C)[O-])s1 (centres unmarked) [5-methylsulfinyl-1,3,4-thiadiazole-2-carboxylic acid-isopropylamide] | 4 |
| CCCNC(=O)c1nnc([S+](C)[O-])s1 (centres unmarked) [5-methylsulfinyl-1,3,4-thiadiazole-2-carboxylic acid-propylamide] | 4 |
| CCNC(=O)c1nnc(S(C)(=O)=O)s1 [5-methylsulfonyl-1,3,4-thiadiazole-2-carboxylic acid-ethylamide] | 4 |

Same assay, conditions: 80 mg/l soil; 20 grains per dish; 3 weeks at 20-24° C.

| SMILES | number of sound peas |
| --- | --- |
| CC(C)NC(=O)c1nnc([S+](C)[O-])s1 (centres unmarked) [5-methylsulfinyl-1,3,4-thiadiazole-2-carboxylic acid-isopropylamide] | 20 |
| CCCNC(=O)c1nnc([S+](C)[O-])s1 (centres unmarked) [5-methylsulfinyl-1,3,4-thiadiazole-2-carboxylic acid-propylamide] | 15 |
| CCNC(=O)c1nnc(S(C)(=O)=O)s1 [5-methylsulfonyl-1,3,4-thiadiazole-2-carboxylic acid-ethylamide] | 15 |

System: Helminthosporium gramineum
Experiment: Seed treatment in open field tests for infestation by Helminthosporium gramineum (barley)
Assay type: in vivo
Conditions: summer barley; 50 g active agent/100 kg barley; about 3 months
Experimental: Seed treatment in open field tests for infestation by Helminthosporium gramineum
The active agents were used in the form of pulverulent compositions. After about 8 months in case of winter barley and after about 3 months in case of summer barley the infested plants were counted and the activity was calculated by the formula [formula]

| SMILES | % activity [%] |
| --- | --- |
| CCCNC(=O)c1nnc([S+](C)[O-])s1 (centres unmarked) [5-methylsulfinyl-1,3,4-thiadiazole-2-carboxylic acid-propylamide] | 97 |
| CCNC(=O)c1nnc(S(C)(=O)=O)s1 [5-methylsulfonyl-1,3,4-thiadiazole-2-carboxylic acid-ethylamide] | 100 |
